According to patent publication EP4653437A2 (Innovo Therapeutics Inc., priority 2023, dated 2024):

Key:
human 15-PGDH = biological target: T1, human 15-PGDH (Homo sapiens, UniProt P15428); experiment: Evaluation of 15-PGDH inhibitory activity (fluorescence enzyme assay, NAD+/PGE2); format: biochemical; details: human 15-PGDH enzyme, fluorescence Vmax
T1 construct: purchased R&D System 5660-DH
T1 sequence (P15428 1-266): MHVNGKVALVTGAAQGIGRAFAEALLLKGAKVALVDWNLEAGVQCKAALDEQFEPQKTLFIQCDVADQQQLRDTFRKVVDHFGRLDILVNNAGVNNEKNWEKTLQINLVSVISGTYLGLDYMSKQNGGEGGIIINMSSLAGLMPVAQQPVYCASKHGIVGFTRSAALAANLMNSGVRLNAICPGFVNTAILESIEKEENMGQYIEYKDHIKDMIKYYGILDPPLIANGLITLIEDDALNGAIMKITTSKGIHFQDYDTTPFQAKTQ
Description: 15-PGDH inhibition activity of Example compounds was measured as follows. 6.7 ng of human 15-PGDH (R&D System# 5660-DH) enzyme (10 µL) was added to a black 96 well plate, 60 µL of buffer (50 mM Tris-HCl, pH 7.5, 0.01% Tween 20) was added, and 10 µL of 200 µM β-Nicotinamide adenine dinucleotide sodium salt (Sigma, Cat# N0632-5G) was added. 10 µL of (10x) compound solution in DMSO was added and reacted for 10 minutes at room temperature.

A549 cells = experiment: Measurement of PGE2-increasing activity in A549 cells (IL-1β stimulated, PGE2 quantified in supernatant); format: cell-based; details: Homo sapiens, 24 h; concentration of 1 µM of each compound; IL-1β treated A549 cells; read-out: Increased PGE2 production in A549 cells
How it was run: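 PGE2 secreted into the supernatant was measured by immunoassay 24 h after treatment. Before treatment, A549 cells were cultured 24 h in 10% FBS F12K, washed, and placed in serum-free medium containing compound (DMSO 0.1% final) plus or minus IL-1β, incubated at 37 °C, 5% CO2.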

IC50 (human 15-PGDH) [nM]	Structure (SMILES)	fold induction at 1 µM (A549 cells)
≤ 100	O=C(c1cccc(-c2cccc3c(C(=O)N4CCCCC4)cnn23)c1)N1CCNCC1 [Example 34, piperazin-1-yl(3-(3-(piperidine-1-carbonyl)pyrazolo[1,5-a]pyridin-7-yl)phenyl)methanone]	> 1.5
≤ 100	Cc1nnc(-c2ncc(-c3cccc4c(C(=O)N5CCCCC5)cnn34)cc2F)o1 [Example 379, [7-[5-fluoro-6-(5-methyl-1,3,4-oxadiazol-2-yl)-3-pyridyl]pyrazolo[1,5-a]pyridin-3-yl]-(1-piperidyl)methanone]	> 1.5
≤ 100	CNC(=O)c1ccc(-c2cccc3c(C(=O)N4CCCCC4)cnn23)cc1 [Example 58, N-methyl-4-(3-(piperidine-1-carbonyl)pyrazolo[1,5-a]pyridin-7-yl)benzamide]	> 1.5
≤ 100	O=C(c1cnn2c(-c3ccc(F)nc3)cccc12)N1CCCCC1 [Example 19, (7-(6-fluoropyridin-3-yl)pyrazolo[1,5-a]pyridin-3-yl)(piperidin-1-yl)methanone]	> 1.5
≤ 100	N#Cc1ccc(Nc2cccc3c(C(=O)N4CCCCC4)cnn23)cc1 [Example 146, 4-((3-(piperidine-1-carbonyl)pyrazolo[1,5-a]pyridin-7-yl)amino)benzonitrile]	> 1.5
≤ 100	O=C1NCc2ccc(-c3cccc4c(C(=O)N5CCCC(F)C5)cnn34)cc21 (stereo not shown) [Example 378, 6-(3-(3-fluoropiperidine-1-carbonyl)pyrazolo[1,5-a]pyridin-7-yl)isoindolin-1-one]	> 1.5
≤ 100	Cn1cnc(-c2cccc3c(C(=O)N4CCCCC4)cnn23)cc1=O [Example 207, 3-methyl-6-(3-(piperidine-1-carbonyl)pyrazolo[1,5-a]pyridin-7-yl)pyrimidin-4(3H)-one]	< 1.5
≤ 100	COC(=O)C1CN(c2ccc(-c3cccc4c(C(=O)N5CCCCC5)cnn34)cn2)C1 [Example 219, methyl 1-(5-(3-(piperidine-1-carbonyl)pyrazolo[1,5-a]pyridin-7-yl)pyridin-2-yl)azetidine-3-carboxylate]	> 1.5
≤ 100	N#Cc1ccc(-c2cccc3c(C(=O)N4CCC(F)CC4)cnn23)cc1 [Example 156, 4-(3-(4-fluoropiperidine-1-carbonyl)pyrazolo[1,5-a]pyridin-7-yl)benzonitrile]	> 1.5
≤ 100	O=C(c1cnn2c(-c3cnc(-c4nnc(C(F)(F)F)o4)c(F)c3)cccc12)N1CCCCC1 [Example 394, [7-[5-fluoro-6-[5-(trifluoromethyl)-1,3,4-oxadiazol-2-yl]-3-pyridyl]pyrazolo[1,5-a]pyridin-3-yl]-(1-piperidyl)methanone]	> 1.5
≤ 100	O=C1CN(C(=O)c2cncc(-c3cccc4c(C(=O)N5CCCCC5)cnn34)c2)CCN1 [Example 203, 4-[5-[3-(piperidine-1-carbonyl)pyrazolo[1,5-a]pyridin-7-yl]pyridine-3-carbonyl]piperazin-2-one]	> 1.5
≤ 100	O=C(c1cnn2c(-c3ccnc(-c4cnn(Cc5ncon5)c4)c3)cccc12)N1CCCCC1 [Example 397, (7-(2-(1-((1,2,4-oxadiazol-3-yl)methyl)-1H-pyrazol-4-yl)pyridin-4-yl)pyrazolo[1,5-a]pyridin-3-yl)(piperidin-1-yl)methanone]	> 1.5
≤ 100	O=C1NCc2ncc(-c3cccc4c(C(=O)N5CCCCC5)cnn34)cc21 [Example 232, 3-(3-(piperidine-1-carbonyl)pyrazolo[1,5-a]pyridin-7-yl)-6,7-dihydro-5H-pyrrolo[3,4-b]pyridin-5-one]	> 1.5
≤ 100	O=C1CC(C(=O)Nc2cncc(-c3cccc4c(C(=O)N5CCCCC5)cnn34)c2)CCN1 (stereo not shown) [Example 198, 2-oxo-N-(5-(3-(piperidine-1-carbonyl)pyrazolo[1,5-a]pyridin-7-yl)pyridin-3-yl)piperidine-4-carboxamide]	> 1.5
